Measured values: US20240059698A1 (Accutar Biotechnology Inc., priority 2022, published 2024)

What was measured:
Assay type in all cases: cell-based
[1] = tested on: A431 cells; experiment: Cell growth inhibition (CellTiter-Glo), A431; details: Homo sapiens, A-431, 72 h, 3 days
Procedure, shortened: (§1)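 HCC827 cells in RPMI and A431 cells in DMEM (both 10% FBS) were seeded at 5000 cells/well and left overnight. They were then exposed to compound dilutions for 3 days at 37° C. Viability was read by CellTiter-Glo luminescence.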

[2] = tested on: HCC827-SVD cells (human EGFR exon 20 insertion mutant D770_N771insSVD); experiment: Cell growth inhibition (CellTiter-Glo), HCC827-SVD; details: 72 h, 3 days
Procedure, shortened: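 HCC827 cells with endogenous EGFR knocked out and lentivirally expressing the insertion mutant (single clone) were seeded at 5000 cells/well in RPMI with 10% FBS. After overnight, compounds added; 3 days at 37 °C, then CellTiter-Glo luminescence.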

[3] = tested on: HCC827-ASV cells (human EGFR exon 20 insertion mutant V769_D770insASV); experiment: Cell growth inhibition (CellTiter-Glo), HCC827-ASV; details: 72 h, HCC827-ASV cells, 3 days, CellTiter-Glo, read-out: Cell growth inhibition, GI50 (nM) HCC827-ASV
Procedure: Generation of HCC827-SVD, HCC827-ASV, and HCC827-YVMA cell lines. The HCC827-SVD cell line was generated by first transducing HCC827 cells (ATCC) with lentiviral particles expressing codon-optimized human EGFR exon 20 insertion mutant D770_N771insSVD, and then selecting under 5 µg/mL puromycin treatment for a week. The resulting cells were further transduced with lentiviral particles carrying EGFR sgRNA and CAS9 to knockout the endogenous alleles of EGER and then selected under 500 µg/mL hygromycin B treatment for two weeks. The limiting dilution approach was used to subsequently generate the single clone of the HCC827-SVD stable cell line. Endogenous EGFR knockout was confirmed by Sanger sequencing of cell genomic DNA, and expression of exogenous mutant EGFR was verified by Western blot analysis.
HCC827-ASV and HCC827-YVMA cell lines were generated in a similar approach as HCC827-SVD, except that HCC827 cells (ATCC) were first transduced with lentiviral particles expressing codon-optimized human EGFR exon 20 insertion mutant V769_D770insASV and human ERBB2 exon20 insertion mutant A775_G776ins YVMA, respectively.
2. Cell Growth Inhibition for HCC827, HCC827-SVD, HCC827-ASV, HCC827-YVMA, and A431.
HCC827(ATCC), HCC827-SVD, HCC827-ASV, and HCC827-YVMA cells were seeded in 96-well plates at 5000 cells/well in 90 μL of RPMI growth medium containing 10% FBS and 1% Penicillin Streptomycin. A431 (ATCC) cells were seeded in 96-well plates at 5000 cells/well in 90 μL of DMEM growth medium containing 10% FBS and 1% Penicillin Streptomycin. Cells were incubated at 37° C. overnight and then administered with 10 μL 10× test compounds prepared in the growth medium at various concentrations. After administration of the compounds, cells were incubated at 37° C. for 3 days. Before the CellTiter-Glo assay, the plates were equilibrated at room temperature for approximately 30 minutes. 100 ul of CellTiter-Glo reagent (Promega) was added to each well. The plates were then incubated at room temperature for 10 minutes and luminescence was recorded by the EnSight® multimode plate reader (PerkinElmer). Table 7 listed selected compounds in cellular growth assay.

[4] = tested on: HCC827 cells; experiment: Cell growth inhibition (CellTiter-Glo), HCC827; details: Homo sapiens, 72 h, 3 days
Procedure, shortened: as §1

[5] = tested on: HCC827-YVMA cells (human ERBB2 exon20 insertion mutant A775_G776ins YVMA); experiment: Cell growth inhibition (CellTiter-Glo), HCC827-YVMA; details: 72 h, HCC827-YVMA cells, 3 days, CellTiter-Glo, read-out: Cell growth inhibition, GI50 (nM) HCC827-YVMA
Procedure, shortened: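 HCC827 cells transduced with lentiviral codon-optimized mutant (ERBB2 A775_G776insYVMA or EGFR V769_D770insASV), endogenous EGFR knocked out by CRISPR, single clone selected. Cells seeded overnight in RPMI/10% FBS, then exposed to serially diluted compounds at 37 °C for 3 days; viability read by CellTiter-Glo luminescence.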

GI50 [1] [nM]	GI50 [2] [nM]	GI50 [3] [nM]	GI50 [4] [nM]	GI50 [5] [nM]	SMILES
200 to 1000	50 to 200	< 50	50 to 200	< 50	C=CC(=O)N1CCC(c2c[nH]c3ncnc(Nc4ccc(Oc5ccnc(NC(=O)C6CCCC6)c5)cc4F)c23)CC1 [Compound 90, N-(4-(4-((5-(1-acryloylpiperidin-4-yl)-7H-pyrrolo[2,3-d]pyrimidin-4-yl)amino)-3-fluorophenoxy)pyridin-2-yl)cyclopentanecarboxamide]
200 to 1000	< 50	< 50	> 1000	< 50	C=CC(=O)N1CCC(c2c[nH]c3ncnc(Nc4ccc(Oc5ccnc(Nc6ccccn6)c5)cc4F)c23)CC1 [Compound 135, 1-(4-(4-((2-fluoro-4-((2-(pyridin-2-ylamino)pyridin-4-yl)oxy)phenyl)amino)-7H-pyrrolo[2,3-d]pyrimidin-5-yl)piperidin-1-yl)prop-2-en-1-one]
> 1000	50 to 200	< 50	200 to 1000	< 50	C=CC(=O)N1CCC(c2c[nH]c3ncnc(Nc4ccc(Oc5ccnc(-n6ccc(OC)n6)c5)cc4F)c23)CC1 [Compound 136, 1-(4-(4-((2-fluoro-4-((2-(3-methoxy-1H-pyrazol-1-yl)pyridin-4-yl)oxy)phenyl)amino)-7H-pyrrolo[2,3-d]pyrimidin-5-yl)piperidin-1-yl)prop-2-en-1-one]
> 1000	> 1000	< 50	50 to 200	< 50	C=CC(=O)N1CCC(c2c[nH]c3ncnc(Nc4ccc(Oc5ccnc(N6CC(O)(C(F)(F)F)C6)c5)cc4F)c23)CC1 [Compound 144, 1-(4-(4-((2-fluoro-4-((2-(3-hydroxy-3-(trifluoromethyl)azetidin-1-yl)pyridin-4-yl)oxy)phenyl)amino)-7H-pyrrolo[2,3-d]pyrimidin-5-yl)piperidin-1-yl)prop-2-en-1-one]
> 1000	200 to 1000	200 to 1000	> 1000	200 to 1000	C=CC(=O)N1CCC(c2c[nH]c3ncnc(Nc4ccc(Oc5ccnc(N6CCN(C)CC6)c5)cc4F)c23)CC1 [Compound 152, 1-(4-(4-((2-fluoro-4-((2-(4-methylpiperazin-1-yl)pyridin-4-yl)oxy)phenyl)amino)-7H-pyrrolo[2,3-d]pyrimidin-5-yl)piperidin-1-yl)prop-2-en-1-one]
200 to 1000	< 50	< 50	< 50	< 50	C=CC(=O)N1CC=C(c2c[nH]c3ncnc(Nc4ccc(OCc5ccccn5)c(Cl)c4)c23)CC1 [Compound 154, 1-(4-(4-((3-chloro-4-(pyridin-2-ylmethoxy)phenyl)amino)-7H-pyrrolo[2,3-d]pyrimidin-5-yl)-3,6-dihydropyridin-1(2H)-yl)prop-2-en-1-one]
> 1000	50 to 200	200 to 1000	> 1000	50 to 200	C=CC(=O)N1CCC(c2c[nH]c3ncnc(Nc4ccc(Oc5ccnc(N6C[C@@H](C)O[C@@H](C)C6)c5)cc4F)c23)CC1 [Compound 155, 1-(4-(4-((4-((2-((2S,6R)-2,6-dimethylmorpholino)pyridin-4-yl)oxy)-2-fluorophenyl)amino)-7H-pyrrolo[2,3-d]pyrimidin-5-yl)piperidin-1-yl)prop-2-en-1-one]
< 50	< 50	< 50	< 50	< 50	C=CC(=O)N1CCC(c2c[nH]c3ncnc(Nc4ccc(OCc5ccccn5)c(Cl)c4)c23)CC1 [Compound 156, 1-(4-(4-((3-chloro-4-(pyridin-2-ylmethoxy)phenyl)amino)-7H-pyrrolo[2,3-d]pyrimidin-5-yl)piperidin-1-yl)prop-2-en-1-one]
> 1000	50 to 200	50 to 200	200 to 1000	50 to 200	C=CC(=O)N1CCC(c2c[nH]c3ncnc(Nc4ccc(Oc5ccn(Cc6cc(C)ccn6)n5)cc4F)c23)CC1 [Compound 157, 1-(4-(4-((2-fluoro-4-((1-((4-methylpyridin-2-yl)methyl)-1H-pyrazol-3-yl)oxy)phenyl)amino)-7H-pyrrolo[2,3-d]pyrimidin-5-yl)piperidin-1-yl)prop-2-en-1-one]
> 1000	> 1000	200 to 1000	> 1000	50 to 200	C=CC(=O)N1CCC(c2csc3ncnc(Nc4ccc(Oc5ccn(Cc6cc(C)ccn6)n5)cc4F)c23)CC1 [Compound 158, 1-(4-(4-((2-fluoro-4-((1-((4-methylpyridin-2-yl)methyl)-1H-pyrazol-3-yl)oxy)phenyl)amino)thieno[2,3-d]pyrimidin-5-yl)piperidin-1-yl)prop-2-en-1-one]
> 1000	200 to 1000	200 to 1000	> 1000	200 to 1000	C=CC(=O)N1CCC(c2csc3ncnc(Nc4ccc(Oc5ccnc(N6C[C@@H](C)O[C@@H](C)C6)c5)cc4F)c23)CC1 [Compound 159, 1-(4-(4-((4-((2-((2R,6S)-2,6-dimethylmorpholino)pyridin-4-yl)oxy)-2-fluorophenyl)amino)thieno[2,3-d]pyrimidin-5-yl)piperidin-1-yl)prop-2-en-1-one]
< 50	< 50	< 50	< 50	< 50	C=CC(=O)N1CCC(c2csc3ncnc(Nc4ccc(OCc5ccccn5)c(Cl)c4)c23)CC1 [Compound 160, 1-[4-[4-[3-chloro-4-(2-pyridylmethoxy)anilino]thieno[2,3-d]pyrimidin-5-yl]-1-piperidyl]prop-2-en-1-one]
200 to 1000	200 to 1000	200 to 1000	200 to 1000	50 to 200	C=CC(=O)N1CCC(c2n[nH]c3ncnc(Nc4ccc(Oc5ccn(Cc6cc(C)ccn6)n5)cc4F)c23)CC1 [Compound 164, 1-(4-(4-((2-fluoro-4-((1-((4-methylpyridin-2-yl)methyl)-1H-pyrazol-3-yl)oxy)phenyl)amino)-1H-pyrazolo[3,4-d]pyrimidin-3-yl)piperidin-1-yl)prop-2-en-1-one]
< 50	< 50	< 50	< 50	< 50	C=CC(=O)N1CCC(c2n[nH]c3ncnc(Nc4ccc(OCc5ccccn5)c(Cl)c4)c23)CC1 [Compound 166, 1-(4-(4-((3-chloro-4-(pyridin-2-ylmethoxy)phenyl)amino)-1H-pyrazolo[3,4-d]pyrimidin-3-yl)piperidin-1-yl)prop-2-en-1-one]
> 1000	50 to 200	50 to 200	> 1000	50 to 200	C=CC(=O)N1CCC(c2n[nH]c3ncnc(Nc4ccc(Oc5ccnc(N6C[C@@H](C)O[C@@H](C)C6)c5)cc4F)c23)CC1 [Compound 167, 1-(4-(4-((4-((2-((2R,6S)-2,6-dimethylmorpholino)pyridin-4-yl)oxy)-2-fluorophenyl)amino)-1H-pyrazolo[3,4-d]pyrimidin-3-yl)piperidin-1-yl)prop-2-en-1-one]
> 1000	< 50	< 50	–	< 50	C=CC(=O)N1CCC(c2c[nH]c3ncnc(Nc4ccc(Oc5ccnc(NC(=O)C6CC6)c5)cc4F)c23)CC1 [Compound 232, N-(4-(4-((5-(1-acryloylpiperidin-4-yl)-7H-pyrrolo[2,3-d]pyrimidin-4-yl)amino)-3-fluorophenoxy)pyridin-2-yl)cyclopropanecarboxamide]
